{
  "source": "paper PMC11864979",
  "about": "“First-in-class ultralong-target-residence-time p38α inhibitors as a mitosis-targeted therapy for colorectal cancer” (Nature Cancer, 2025)",
  "key": {"PDO8": {"tested_on": "PDO8", "experiment": "cell viability in patient-derived CRC organoids PDO8", "format": "cell-based, human", "procedure": "(§1) For in vitro treatment studies, organoids were mechanically dissociated and digested using TrypLE supplemented with 100 µg ml^−1 DNaseI and 10.5 µM Y-27632 dihydrochloride (Invitrogen) at 37 °C. A total of 1,000–2,000 single cells were plated per well in white 96-well plates (Greiner) in culture medium containing 10% GFR Matrigel or Cultrex BME. The treatment with doxycycline (5 µg ml^−1), pharmacological inhibitors or corresponding volumes of DMSO was started 24 h after plating. Doxycycline was obtained from Sigma-Aldrich. […] Cell viability was measured by means of CellTiter-Glo 3D or CellTiter-Glo 2.0 reagent (Promega) according to the manufacturers’ instructions and the Infinite M Plex reader (Tecan, i-control version 3.9.1 software). Results were normalized to vehicle (DMSO) or to shNC. For cell-doubling assays, the cell number was quantified at the corresponding time points using Guava EasyCyte flow cytometer (Luminex, CytoSoft v5.2 software)."}, "LS 174T": {"tested_on": "LS 174T", "experiment": "cell viability in human CRC cell line LS 174T", "format": "cell-based", "description": "The cells were cultured at 37 °C and 7% CO2 with RPMI (KAP^2D cells) or DMEM (other cell lines), supplemented with 10% FBS and penicillin–streptomycin. […] No commonly misidentified cell lines were used. Mycoplasma contamination was excluded by a PCR-based analysis."}, "HT-29": {"tested_on": "HT-29", "experiment": "cell viability in human CRC cell line HT-29", "format": "cell-based", "conditions": "for HT-29 Cell viability (%) / viability at 0.0137 µM / viability at 0.0412 µM / viability at 0.1235 µM / viability at 0.3704 µM / viability at 1.1111 µM / viability at 3.3333 µM: ED Fig. 9h, replicates; for viability at 0.0137 µM: HT-29, 0.0137 µM; for viability at 0.0137 µM / viability at 0.0412 µM / viability at 0.1235 µM / viability at 0.3704 µM / viability at 1.1111 µM / viability at 3.3333 µM: read-out: HT-29 Cell viability (%); for viability at 0.0412 µM: HT-29, 0.0412 µM; for viability at 0.1235 µM: HT-29, 0.1235 µM; for viability at 0.3704 µM: HT-29, 0.3704 µM; for viability at 1.1111 µM: HT-29, 1.1111 µM; for viability at 3.3333 µM: HT-29, 3.3333 µM", "procedure": "To generate KAP^2D cells, KAP organoids were isolated from Matrigel, fragmented by mechanical dissociation and plated without any extracellular matrix on common cell culture dishes. Phoenix-Eco packaging cells (CRL-3214), HCT-15 (CCL-225), HCT 116 (CCL-247), COLO 205 (CCL-222), LS 174T (CL-188), RKO (CRL-2577) and HT-29 (HTB-38) were obtained from the American Type Culture Collection. The cells were cultured at 37 °C and 7% CO2 with RPMI (KAP^2D cells) or DMEM (other cell lines), supplemented with 10% FBS and penicillin–streptomycin. KAP^2D cells were authenticated using PCR (Kras locus and Trp53 locus). Phoenix-Eco packaging cells and HCT-15, HCT 116, COLO 205, LS 174T, RKO and HT-29 cells were authenticated by the provider using short tandem repeat profiling. No commonly misidentified cell lines were used. Mycoplasma contamination was excluded by a PCR-based analysis.\nas §1"}},
  "note": "Where “and” joins values, the source holds several entries; their conditions need not be identical. Equal entries are not always repeated. Where two headings read alike, the source gives them in different places.",
  "data": [
    {"smiles": "CNC(=O)c1ccc2c(c1)C(=O)c1ccc(Nc3ccc(F)c(NC(=O)C4CC4)c3)cc1CC2", "note": "[Compound 2015]", "values": [
      {"measurement": "viability at 1 µM", "setting": "PDO8; Homo sapiens, 96 h, PDO8, 1 µM, 4 days", "result": 47.8, "unit": "%"},
      {"measurement": "Cell viability (%)", "setting": "PDO8; PDO8, 0.5 µM, 4 d, 0.5 µM", "result": "62.35% and 47.16% and 31.30%"},
      {"measurement": "Cell viability (%)", "setting": "PDO8; PDO8, 1 µM, 4 days, 1 µM", "result": "40.47% and 33.30%"},
      {"measurement": "LS 174T Cell viability (%)", "setting": "LS 174T; 0.0137 µM, 4 d", "result": "96.94% and 94.17% and 83.74% and 81.63% and 85.36%"},
      {"measurement": "LS 174T Cell viability (%)", "setting": "LS 174T; 0.0412 µM, 4 d", "result": "73.38% and 70.71% and 85.74% and 87.33% and 89.84%"},
      {"measurement": "LS 174T Cell viability (%)", "setting": "LS 174T; 0.1235 µM, 4 d", "result": "69.97% and 51.36% and 67.79% and 77.35% and 76.20% and 73.53%"},
      {"measurement": "LS 174T Cell viability (%)", "setting": "LS 174T; 0.3704 µM, 4 d", "result": "24.32% and 25.80% and 26.81% and 26.78% and 26.48%"},
      {"measurement": "LS 174T Cell viability (%)", "setting": "LS 174T; 1.1111 µM, 4 d", "result": "31.73% and 32.17% and 36.58% and 37.87% and 35.55%"},
      {"measurement": "LS 174T Cell viability (%)", "setting": "LS 174T; 3.3333 µM, 4 d", "result": "32.71% and 33.28% and 34.27% and 33.01% and 33.12%"},
      {"measurement": "LS 174T Cell viability (%)", "setting": "LS 174T; 10.0000 µM, 4 d", "result": "28.71% and 24.62% and 25.79% and 25.85%"},
      {"measurement": "viability at 0.0137 µM", "setting": "LS 174T; Homo sapiens, LS174T, 96 h, 0.0137 µM, 4 d, read-out: LS 174T Cell viability (%)", "result": 92.3, "unit": "%"},
      {"measurement": "viability at 0.0412 µM", "setting": "LS 174T; Homo sapiens, LS174T, 96 h, 0.0412 µM, 4 d, read-out: LS 174T Cell viability (%)", "result": 70.7, "unit": "%"},
      {"measurement": "viability at 0.3704 µM", "setting": "LS 174T; Homo sapiens, LS174T, 96 h, 0.3704 µM, 4 d, read-out: LS 174T Cell viability (%)", "result": 25, "unit": "%"},
      {"measurement": "viability at 1.1111 µM", "setting": "LS 174T; Homo sapiens, LS174T, 96 h, 1.1111 µM, 4 d, read-out: LS 174T Cell viability (%)", "result": 31.5, "unit": "%"},
      {"measurement": "viability at 3.3333 µM", "setting": "LS 174T; Homo sapiens, LS174T, 96 h, 3.3333 µM, 4 d, read-out: LS 174T Cell viability (%)", "result": 33.1, "unit": "%"},
      {"measurement": "viability at 10 µM", "setting": "LS 174T; Homo sapiens, LS174T, 96 h, 10.0000 µM, 4 d, read-out: LS 174T Cell viability (%)", "result": 25.1, "unit": "%"},
      {"measurement": "IC50", "setting": "LS 174T; Homo sapiens, LS174T, 96 h, LS 174T, 4 d of treatment", "result": 132, "unit": "nM"},
      {"measurement": "HT-29 Cell viability (%)", "setting": "HT-29; 0.0137 µM, Repetition", "result": "96.89% and 103.43%"},
      {"measurement": "HT-29 Cell viability (%)", "setting": "HT-29; 0.0137 µM, first experiment", "result": "95.39% and 93.39%"},
      {"measurement": "HT-29 Cell viability (%)", "setting": "HT-29; 0.0412 µM, Repetition", "result": "87.26% and 92.22%"},
      {"measurement": "HT-29 Cell viability (%)", "setting": "HT-29; 0.0412 µM, first experiment", "result": "90.94% and 92.11%"},
      {"measurement": "HT-29 Cell viability (%)", "setting": "HT-29; 0.1235 µM, Repetition", "result": "78.51% and 65.92%"},
      {"measurement": "HT-29 Cell viability (%)", "setting": "HT-29; 0.1235 µM, first experiment", "result": "82.62% and 81.99%"},
      {"measurement": "HT-29 Cell viability (%)", "setting": "HT-29; 0.3704 µM, Repetition", "result": "32.88% and 34.27%"},
      {"measurement": "HT-29 Cell viability (%)", "setting": "HT-29; 0.3704 µM, first experiment", "result": "11.40% and 11.69%"},
      {"measurement": "HT-29 Cell viability (%)", "setting": "HT-29; 1.1111 µM, Repetition", "result": "7.40% and 7.23%"},
      {"measurement": "HT-29 Cell viability (%)", "setting": "HT-29; 1.1111 µM, first experiment", "result": "7.18% and 7.44%"},
      {"measurement": "HT-29 Cell viability (%)", "setting": "HT-29; 3.3333 µM, Repetition", "result": "7.01% and 6.31%"},
      {"measurement": "HT-29 Cell viability (%)", "setting": "HT-29; 3.3333 µM, first experiment", "result": "10.00% and 9.86%"},
      {"measurement": "HT-29 Cell viability (%)", "setting": "HT-29; 10.0000 µM, Repetition", "result": "6.48% and 6.38%"},
      {"measurement": "HT-29 Cell viability (%)", "setting": "HT-29; 10.0000 µM, first experiment", "result": "9.39% and 10.22%"},
      {"measurement": "IC50", "setting": "HT-29; Homo sapiens, 96 h, HT-29, 4 d of treatment", "result": 178, "unit": "nM"},
      {"measurement": "viability at 0.0137 µM", "setting": "HT-29; Homo sapiens, Repetition", "result": 99.5, "unit": "%"},
      {"measurement": "viability at 0.0137 µM", "setting": "HT-29; Homo sapiens, first experiment", "result": 93.3, "unit": "%"},
      {"measurement": "viability at 0.0412 µM", "setting": "HT-29; Homo sapiens, Repetition", "result": 82.5, "unit": "%"},
      {"measurement": "viability at 0.0412 µM", "setting": "HT-29; Homo sapiens, first experiment", "result": 89.4, "unit": "%"},
      {"measurement": "viability at 0.1235 µM", "setting": "HT-29; Homo sapiens, Repetition", "result": 73, "unit": "%"},
      {"measurement": "viability at 0.1235 µM", "setting": "HT-29; Homo sapiens, first experiment", "result": 79.7, "unit": "%"},
      {"measurement": "viability at 0.3704 µM", "setting": "HT-29; Homo sapiens, Repetition", "result": 33.4, "unit": "%"},
      {"measurement": "viability at 0.3704 µM", "setting": "HT-29; Homo sapiens, first experiment", "result": 12.1, "unit": "%"},
      {"measurement": "viability at 1.1111 µM", "setting": "HT-29; Homo sapiens, Repetition", "result": 7.21, "unit": "%"},
      {"measurement": "viability at 1.1111 µM", "setting": "HT-29; Homo sapiens, first experiment", "result": 7.57, "unit": "%"},
      {"measurement": "viability at 3.3333 µM", "setting": "HT-29; Homo sapiens, Repetition", "result": 6.86, "unit": "%"},
      {"measurement": "viability at 3.3333 µM", "setting": "HT-29; Homo sapiens, first experiment", "result": 10.2, "unit": "%"}
    ]}
  ]
}
